Assay results published in patent US9113629B2, “4-amino-6-(4-substituted-phenyl)-picolinates and 6-amino-2-(4-substituted-phenyl)-pyrimidine-4-carboxylates and their use as herbicides” (DOW AGROSCIENCES LLC, priority 2013, dated 2015).
Where two headings read alike, the source gives them in different places.

Experiments:
[1] = tested on: Key Broadleaf Weed and Crop Species; test: Post-emergent Test II herbicidal activity (Table 5); assay type: in vivo; settings: post-emergence, 336 h, post-emergent, 14 days after application; for pest or weed control at 70 g/ha: 70 g ai/ha; for pest or weed control at 140 g/ha: 140 g ai/ha
Procedure, shortened: (§1)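 Injury was rated visually 14 d after treatment on a 0–100% scale against untreated controls. Test compounds, formulated with crop oil concentrate and surfactant and serially diluted down to 1/16× of the top rate, were applied by track sprayer at 187 L/ha onto first- to second-true-leaf seedlings.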

[2] = tested on: Key Grass and Sedge Weeds as well as Grass Crops; test: Post-emergent Test II herbicidal activity (Table 6); assay type: in vivo; settings: post-emergence, 336 h; for pest or weed control at 70 g/ha: application rate 70 g ai/ha; for pest or weed control at 140 g/ha: application rate 140 g ai/ha
Procedure, shortened: as §1

[3] = ABUTH: velvetleaf (Abutilon theophrasti), read-out: Visual Growth Reduction (%) 14 Days After Application ABUTH
[4] = AMARE: redroot pigweed (Amaranthus retroflexus), read-out: Visual Growth Reduction (%) 14 Days After Application AMARE
[5] = BRSNN: oilseed-rape, canola (Brassica napus), read-out: Visual Growth Reduction (%) 14 Days After Application BRSNN
[6] = CHEAL: lambsquarters (Chenopodium album), read-out: Visual Growth Reduction (%) 14 Days After Application CHEAL
[7] = EPHHL: wild poinsettia (Euphorbia heterophylla), read-out: Visual Growth Reduction (%) 14 Days After Application EPHHL
[8] = HELAN: sunflower (Helianthus annuus), read-out: Visual Growth Reduction (%) 14 Days After Application HELAN
[9] = VIOTR: wild pansy (Viola tricolor), read-out: Visual Growth Reduction (%) 14 Days After Application VIOTR
[10] = CYPES: yellow nutsedge (Cyperus esculentus), read-out: Visual Growth Reduction (%) 14 Days After Application, CYPES
[11] = DIGSA: crabgrass (Digitaria sanguinalis), read-out: Visual Growth Reduction (%) 14 Days After Application, DIGSA
[12] = ECHCG: barnyardgrass (Echinochloa crus-galli), read-out: Visual Growth Reduction (%) 14 Days After Application, ECHCG
[13] = ORYSA: rice (Oryza sativa), read-out: Visual Growth Reduction (%) 14 Days After Application, ORYSA
[14] = SETFA: giant foxtail (Setaria faberi), read-out: Visual Growth Reduction (%) 14 Days After Application, SETFA
[15] = SORVU: grain sorghum (Sorghum vulgare), read-out: Visual Growth Reduction (%) 14 Days After Application, SORVU
[16] = TRZSS (wheat, Triticum aestivum), read-out: Visual Growth Reduction (%) 14 Days After Application, TRZSS
[17] = ZEAMX: maize, corn (Zea mays), read-out: Visual Growth Reduction (%) 14 Days After Application, ZEAMX

Compound `C=Cc1c(N)nc(-c2ccc(C(F)(F)F)c(F)c2)nc1C(=O)O` [Compound 32, 6-Amino-2-(3-fluoro-4-(trifluoromethyl)phenyl)-5-vinylpyrimidine-4-carboxylic acid] has a pest or weed control at 70 g/ha [1, 3] of 60 to 74%, a pest or weed control at 140 g/ha [1, 3] of 60 to 74% and a pest or weed control at 70 g/ha [1, 4] of 75 to 84%. For the same compound, the pest or weed control at 140 g/ha [1, 4] was 95 to 100%, the pest or weed control at 70 g/ha [1, 5] was 0 to 29% and the pest or weed control at 140 g/ha [1, 5] was 45 to 59%. For the same compound, the pest or weed control at 70 g/ha [1, 6] was 95 to 100%, the pest or weed control at 140 g/ha [1, 6] was 95 to 100% and the pest or weed control at 70 g/ha [1, 7] was 95 to 100%. It also gave a pest or weed control at 140 g/ha [1, 7] of 95 to 100%, a pest or weed control at 70 g/ha [1, 8] of 85 to 94% and a pest or weed control at 140 g/ha [1, 8] of 85 to 94%. For the same compound, the pest or weed control at 70 g/ha [1, 9] was 0 to 29%, the pest or weed control at 140 g/ha [1, 9] was 0 to 29% and the pest or weed control at 70 g/ha [2, 10] was 0 to 29%. The pest or weed control at 140 g/ha [2, 10] was 45 to 59%, the pest or weed control at 70 g/ha [2, 11] was 0 to 29% and the pest or weed control at 140 g/ha [2, 11] was 0 to 29%. It also gave a pest or weed control at 70 g/ha [2, 12] of 75 to 84%, a pest or weed control at 140 g/ha [2, 12] of 75 to 84% and a pest or weed control at 70 g/ha [2, 13] of 0 to 29%. For the same compound, the pest or weed control at 140 g/ha [2, 13] was 0 to 29%, the pest or weed control at 70 g/ha [2, 14] was 0 to 29% and the pest or weed control at 140 g/ha [2, 14] was 0 to 29%. The pest or weed control at 70 g/ha [2, 15] was 60 to 74%, the pest or weed control at 140 g/ha [2, 15] was 60 to 74% and the pest or weed control at 70 g/ha [2, 16] was 0 to 29%. For the same compound, the pest or weed control at 140 g/ha [2, 16] was 0 to 29%, the pest or weed control at 70 g/ha [2, 17] was 45 to 59% and the pest or weed control at 140 g/ha [2, 17] was 60 to 74%. It also gave a melting point of 168 to 171 °C.
